Like-named read-outs stand apart in the source and are kept apart here. Marks after values point to notes of the source that are not given here. Square brackets hold non-standard residues; d marks the D form. Peptide text beside a SMILES is read from it. 1Nal = N[C@@H](Cc1cccc2ccccc12)C(=O)O; 2Nal = N[C@@H](Cc1ccc2ccccc2c1)C(=O)O; Nle = CCCC[C@H](N)C(=O)O
Columns and labels:
soluble uPAR [1] = target: T1, soluble uPAR (Homo sapiens, UniProt Q03405); format: binding; set-up: sUPAR, soluble truncated form of the urokinase receptor; made in house; host or cells: baculovirus-infected Sf9 insect cells; conditions: for % Inhibition 2.5 uM: 2500.0; for % Inhibition 5 uM: 5000.0
Description: Streptavidin, 100 μl (0.1 mg/ml) in 50 mM Na2CO3, pH 9.6, was added to MaxiSorp wells (Nunc), incubated overnight at 4 C, and then washed with PBS/BSA. Biotinylated sUPAR (25 nM in PBS/BSA) was added to the wells and incubated for 2 hours at room temperature prior to washing. Competitive peptide inhibitors were added to the wells immediately prior to addition of the bacteriophage. The wells were incubated for one hour at room temperature, then washed and bound bacteriophage eluted with 6M urea in 0.1N HCl, pH 2.5. After 15 minutes, the urea eluate was brought to neutral pH by addition of 2M Tris base and the bacteriophage titers of input stocks and elutions measured by plaque formation assay. Results were expressed as the percent of input bacteriophage which bind to the wells. Alternatively, the amount of bacteriophage was determined in an ELISA where phage were preincubated with HRP-conjugated anti-M13 antibody for 30 minutes at room temperature before dispensing into wells prepared as above and incubated for one hour at room temperature. The final anti-M13 conjugate dilution was 1:4000. After washing, TMB substrate (100 μl/well) was added and color development was stopped with 0.8N H2SO4 (100 μl/well). The absorbance at 450 nm was then measured in a 96 well plate reader.
In a uPAR binding assay, the following analogs were tested in a competition with phage displaying either peptide 25 or peptide 9. The analogs comprise both natural and unnatural amino acids.
The analogs were tested in an assay utilizing soluble uPAR, similar to the method described in Example 2. The analogs were tested for their ability to compete with phage displaying either peptide 9 or peptide 25. Analogs 3–61 were tested in competition with peptide 25. Analogs 62–96 were tested in competition with peptide 9. Approximately 10^8 plaque forming units of the phage were used in the assay.
The analogs were tested at a concentration at 40 μM in the uPAR competition assay with phage displaying peptide 25. The results below show which analogs were active.
Analogs 31–61 were tested for their ability to compete with phage displaying peptide 25. The active analogs were tested further at two concentrations, 5 μM and 2.5 μM. These concentrations were calculated based on the synthesis reactions. However, the sequences * were further tested and determined to contain high amounts of amino acids and the quantity tested could have been higher than 5 μM or 2.5 μM.

sUPAR domain 2–3 (D23) = target: T2, sUPAR domain 2–3 (D23) (Homo sapiens, UniProt Q03405); assay: Bacteriophage binding to sUPAR domain 2/3; conditions: phage-displayed peptide
T2 construct: domains 2 and 3 (amino acids 93–313); made in house; host or cells: baculovirus infected Sf9 insect cells
Description: FIG. 5. Bacteriophage binding to sUPAR domain 2/3. Phage were added to wells containing sUPAR domain 2/3 immobilized by its epitope tag via protein G and monoclonal antibody to the epitope tag. Wells containing protein G and antibody but no domain 2/3 were included to determine nonspecific phage binding. Urea-eluted phage and the input stocks were titered by plaque formation assay. Results were single point determinations calculated as a percent of the input titer and were repeated in three separate experiments.
It was also shown by the inventors that bacteriophage bound to sUPAR domain 2–3fragment. Protein G, 100μl, 1 mg/ml in 50 mM Na2CO3, pH9.6, was added to MaxiSorp wells, incubated overnight at 4° C. and then washed with PBS/BSA. Fifty μl of monoclonal antibody to the epitope tag EYMPME (SEQ ID NO: 18) was added at 1 mg/ml in PBS/BSA and incubated for 2 hours at room temperature. The wells were washed, recombinant sUPAR domain 2–3 (1.7 μM in PBS/BSA) was added and incubated for 1.5 hours at room temperature. The wells were washed prior to the addition of bacteriophage (approximately 10^8 pfu), and then treated as described in the previous section for binding to suPAR.

soluble uPAR [2] = target: T1, soluble uPAR
Description: The analogs were tested for their ability to compete with phage displaying either peptide 9 or peptide 25. […] Approximately 10^8 plaque forming units of the phage were used in the assay.

[3] = target: T3, uPA1–48:uPAR complexes binding to vitronectin (Homo sapiens, UniProt Q03405); assay: Vitronectin binding assay (ELISA); conditions: 20 nM biotinylated suPAR, 20 nM uPA1–48
T3 construct: sUPAR, soluble truncated form of the urokinase receptor; made in house; host or cells: suPAR: baculovirus-infected Sf9 cells; uPA1-48: recombinant yeast; vitronectin: purified from human plasma
Description: Vitronectin was purified from human plasma by the method of Yatohgo et al, Cello Struct.and Funct. 13: 281–292 (1988). Purified vitronectin was diluted to 20 μg/ml in PBS containing 1 mM CaCl2 and 0.5 mM MgCl2, dispensed at 50 μl/well into Immulon II wells (Dynatech, Chantilly, Va.), incubated overnight at 4° C. and washed with PBS/BSA. Biotinylated sUPAR was diluted to 20 nM in PBS/BSA, incubated with or without test ligand for 30 minutes at room temperature (22° C.), dispensed at 100 μl/well and incubated for 90 minutes. Wells were then washed and horseradish peroxidase (HRP)-conjugated streptavidin was added at 0.4 μg/ml in PBS/2% BSA for 1 hour followed by washing and addition of 100 μl/well TMB substrate. The color development was stopped with 100 μl of 0.8N H2SO4 and the absorbance at 450 nm measured in a 96 well plate reader (Dynatech, Chantilly, Va.). Antagonistic effects of test ligands were measured as described above except the ligands were incubated with 20 nM biotinylated suPAR in the presence of 20 nM uPA1–48.
In order to analyze the effects of the various peptide ligands on the uPAR:vitronectin interaction, we developed an in vitro ELISA based assay for this interaction, in which biotinylated suPAR and uPA1–48 bind to immobilized, urea purified vitronectin, and the bound sUPAR is detected with HRP conjugated streptavidin. Under the conditions of the assay binding of biotinylated uPAR to vitronectin is strictly dependent on uPA1–48, as shown in FIG. 1.

T1 sequence (Q03405 23-305 limits assumed): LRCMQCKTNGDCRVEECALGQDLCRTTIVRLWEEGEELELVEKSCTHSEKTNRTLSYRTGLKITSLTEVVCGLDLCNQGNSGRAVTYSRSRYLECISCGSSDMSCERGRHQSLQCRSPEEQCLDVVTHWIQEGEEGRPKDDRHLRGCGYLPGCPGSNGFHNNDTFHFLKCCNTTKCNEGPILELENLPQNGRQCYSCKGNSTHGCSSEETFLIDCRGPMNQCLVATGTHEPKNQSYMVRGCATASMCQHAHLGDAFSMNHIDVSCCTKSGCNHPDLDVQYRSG
T3 sequence (Q03405 23-305 limits assumed, one chain of several): as the sequence (Q03405 23-305 limits assumed) above
T2 sequence (Q03405 115-335): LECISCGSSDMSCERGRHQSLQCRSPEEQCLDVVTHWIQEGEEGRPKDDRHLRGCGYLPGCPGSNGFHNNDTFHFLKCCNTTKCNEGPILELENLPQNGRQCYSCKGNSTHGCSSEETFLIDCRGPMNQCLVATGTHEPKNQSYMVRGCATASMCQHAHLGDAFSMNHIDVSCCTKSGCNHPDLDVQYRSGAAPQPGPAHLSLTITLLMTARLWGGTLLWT

% Inhibition 2.5 uM (soluble uPAR [1]) | % Inhibition 5 uM (soluble uPAR [1]) [%] | Compound | also measured
32% | 55 | CSCC[C@H](NC(=O)[C@H](Cc1ccc(O)cc1)NC(=O)CNC(=O)[C@H](CC(C)C)NC(=O)[C@H](CO)NC(=O)[C@H](CC(C)C)NC(=O)[C@H](Cc1c[nH]cn1)NC(=O)[C@H](Cc1c[nH]cn1)NC(=O)[C@H](Cc1ccc(O)cc1)NC(=O)[C@@H](NC(=O)[C@H](CO)NC(=O)[C@H](CCC(=O)O)NC(=O)[C@H](C)N)[C@@H](C)O)C(=O)N[C@@H](Cc1ccc(O)cc1)C(=O)N[C@H](C(=O)N[C@@H](CC(C)C)C(=O)N[C@H](CC(N)=O)C(N)=O)[C@@H](C)O [Analog 61] (H-AESTYHHLSLGYMYTL[dN]-NH2) | 
22% | 75 | CSCC[C@H](NC(=O)[C@H](Cc1ccc(O)cc1)NC(=O)CNC(=O)[C@H](CC(C)C)NC(=O)[C@H](CO)NC(=O)[C@H](CC(C)C)NC(=O)[C@H](Cc1c[nH]cn1)NC(=O)[C@H](Cc1c[nH]cn1)NC(=O)[C@H](Cc1ccc(O)cc1)NC(=O)[C@@H](NC(=O)[C@H](CO)NC(=O)[C@H](CCC(=O)O)NC(=O)[C@H](C)N)[C@@H](C)O)C(=O)N[C@@H](Cc1ccc(O)cc1)C(=O)N[C@H](C(=O)N[C@H](CC(C)C)C(=O)N[C@@H](CC(N)=O)C(N)=O)[C@@H](C)O [Analog 60] (H-AESTYHHLSLGYMYT[dL]N-NH2) | 
41% | 57 | CSCC[C@H](NC(=O)[C@H](Cc1ccc(O)cc1)NC(=O)CNC(=O)[C@H](CC(C)C)NC(=O)[C@H](CO)NC(=O)[C@H](CC(C)C)NC(=O)[C@H](Cc1c[nH]cn1)NC(=O)[C@H](Cc1c[nH]cn1)NC(=O)[C@H](Cc1ccc(O)cc1)NC(=O)[C@@H](NC(=O)[C@H](CO)NC(=O)[C@H](CCC(=O)O)NC(=O)[C@@H](C)N)[C@@H](C)O)C(=O)N[C@@H](Cc1ccc(O)cc1)C(=O)N[C@H](C(=O)N[C@@H](CC(C)C)C(=O)N[C@@H](CC(N)=O)C(N)=O)[C@@H](C)O [Analog 46] (H-[dA]ESTYHHLSLGYMYTLN-NH2) | 
 |  | H-AEFFKLGPNGYVYLHSA-NH2 [peptide 9] | bacteriophage binding to immobilized D23 versus sUPAR (sUPAR domain 2–3 (D23)): bind equivalently to the D23 fragment and full-length receptor; % Inhibition 2.5 uM (soluble uPAR [2]; 2500.0): 59%; % Inhibition 5 uM (soluble uPAR [2]; 5000.0): 71%
 |  | somatomedin B domain of vitronectin: recombinant somatomedin B domain of vitronectin (DQESCKGRCTEGFNVDKKCQCDELCSYYQSCCTDYTAECKPQVT) | effect on binding of uPA1–48:uPAR complexes to vitronectin [3]: blocked
38% | 47 | H-AESTFHHLSLGYMYTLN-NH2 [Analog 34] | 
70% | 94 | CSCC[C@H](NC(=O)[C@H](Cc1ccc(O)cc1)NC(=O)CNC(=O)[C@H](CC(C)C)NC(=O)[C@H](CO)NC(=O)[C@H](CC(C)C)NC(=O)[C@H](Cc1c[nH]cn1)NC(=O)[C@H](Cc1c[nH]cn1)NC(=O)[C@H](Cc1cccc2ccccc12)NC(=O)[C@@H](NC(=O)[C@H](CO)NC(=O)[C@H](CCC(=O)O)NC(=O)[C@H](C)N)[C@@H](C)O)C(=O)N[C@@H](Cc1ccc(O)cc1)C(=O)N[C@H](C(=O)N[C@@H](CC(C)C)C(=O)N[C@@H](CC(N)=O)C(N)=O)[C@@H](C)O [Analog 35, AESTXHHLSLGYMYTLN] (H-AEST[1Nal]HHLSLGYMYTLN-NH2) | 
61% | 78 | CSCC[C@H](NC(=O)[C@H](Cc1ccc(O)cc1)NC(=O)CNC(=O)[C@H](CC(C)C)NC(=O)[C@H](CO)NC(=O)[C@H](CC(C)C)NC(=O)[C@H](Cc1c[nH]cn1)NC(=O)[C@H](Cc1c[nH]cn1)NC(=O)[C@H](Cc1ccc2ccccc2c1)NC(=O)[C@@H](NC(=O)[C@H](CO)NC(=O)[C@H](CCC(=O)O)NC(=O)[C@H](C)N)[C@@H](C)O)C(=O)N[C@@H](Cc1ccc(O)cc1)C(=O)N[C@H](C(=O)N[C@@H](CC(C)C)C(=O)N[C@@H](CC(N)=O)C(N)=O)[C@@H](C)O [Analog 36] (H-AEST[2Nal]HHLSLGYMYTLN-NH2) | 
84* % | 91 | CCCC[C@H](NC(=O)[C@H](Cc1ccc(O)cc1)NC(=O)CNC(=O)[C@H](CC(C)C)NC(=O)[C@H](CO)NC(=O)[C@H](CC(C)C)NC(=O)[C@H](Cc1c[nH]cn1)NC(=O)[C@H](Cc1c[nH]cn1)NC(=O)[C@H](Cc1ccc(O)cc1)NC(=O)[C@@H](NC(=O)[C@H](CO)NC(=O)[C@H](CCC(=O)O)NC(=O)[C@H](C)N)[C@@H](C)O)C(=O)N[C@@H](Cc1ccc(O)cc1)C(=O)N[C@H](C(=O)N[C@@H](CC(C)C)C(=O)N[C@@H](CC(N)=O)C(N)=O)[C@@H](C)O [Analog 44, AESTYHHLSLGYJYTLN] (H-AESTYHHLSLGY[Nle]YTLN-NH2) | 
56% | 80 | CSCC[C@H](NC(=O)[C@H](Cc1ccc(O)cc1)NC(=O)CNC(=O)[C@@H](CC(C)C)NC(=O)[C@H](CO)NC(=O)[C@H](CC(C)C)NC(=O)[C@H](Cc1c[nH]cn1)NC(=O)[C@H](Cc1c[nH]cn1)NC(=O)[C@H](Cc1ccc(O)cc1)NC(=O)[C@@H](NC(=O)[C@H](CO)NC(=O)[C@H](CCC(=O)O)NC(=O)[C@H](C)N)[C@@H](C)O)C(=O)N[C@@H](Cc1ccc(O)cc1)C(=O)N[C@H](C(=O)N[C@@H](CC(C)C)C(=O)N[C@@H](CC(N)=O)C(N)=O)[C@@H](C)O [Analog 55] (H-AESTYHHLS[dL]GYMYTLN-NH2) | 
73% | 86 | CSCC[C@H](NC(=O)[C@H](Cc1ccc(O)cc1)NC(=O)CNC(=O)[C@H](CC(C)C)NC(=O)[C@@H](CO)NC(=O)[C@H](CC(C)C)NC(=O)[C@H](Cc1c[nH]cn1)NC(=O)[C@H](Cc1c[nH]cn1)NC(=O)[C@H](Cc1ccc(O)cc1)NC(=O)[C@@H](NC(=O)[C@H](CO)NC(=O)[C@H](CCC(=O)O)NC(=O)[C@H](C)N)[C@@H](C)O)C(=O)N[C@@H](Cc1ccc(O)cc1)C(=O)N[C@H](C(=O)N[C@@H](CC(C)C)C(=O)N[C@@H](CC(N)=O)C(N)=O)[C@@H](C)O [Analog 54] (H-AESTYHHL[dS]LGYMYTLN-NH2) | 
63% | 82 | H-AESTYHHLSLGYVYTLN-NH2 [Analog 43] | 
